Common to all, as to test: DTP human tumour cell line panel, 48 h
The subject of experiment [1] is NCI/ADR-RES ovarian.
For experiment [2], the system named is UACC-257 melanoma.
Experiment [3] has as its system M14 melanoma.
The subject of experiment [4] is RPMI-8226 leukemia.
Experiment [5] has as its system NCI-H460 lung.
Experiment [6] deals with MCF7 breast.
In experiment [7] the test system is SR leukemia.
The subject of experiment [8] is SK-MEL-28 melanoma.
For experiment [9], the system named is SK-MEL-5 melanoma.

“And” between values parts separate entries of the source, which are not always exact repeats. Equal values may be shown once.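 How tested: cells in 96-well plates exposed to compound for 48 hours at five concentrations. Abbreviation: GI50, concentration required for 50% inhibition of growth. Definition used: TGI = concentration required for complete inhibition of growth.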 Where only a bound is given, the exact number is not on record here.

The term GI50 denotes the concentration giving 50% growth inhibition. As a reminder, the TGI is the concentration giving total growth inhibition. A higher TGI goes with less potent growth arrest. As to `COc1cc(C(=O)/C=C/c2c(C)n([O-])c3ccc(C)cc3[n+]2=O)cc(OC)c1OC`, the GI50 is 8.47 µM in experiment [1]; 2.54 µM in [2]; 4.27 µM in [3]; 2.87 µM in experiment [4]; 14.7 µM in [5]; 3.3 µM in [6]. Besides, the GI50 in experiment [7] is 2.15 µM; in experiment [8] it was 2.41 µM; in experiment [9], 14.8 µM. Further, the concentration for total growth inhibition (TGI) in experiment [1] is > 70.6 µM; in [2] it was 10.2 µM; in [3] it was 10.3 µM; in experiment [4], 17.6 µM; in experiment [5], 36.9 µM; in experiment [6], 12.5 µM. Also, the figures for the TGI in experiment [7], in experiment [8] and in experiment [9] were 7.42 µM, 6.54 µM and 28 µM, respectively.

For the molecule `CC(=O)N[C@@H](Cc1ccc(OP(=O)(O)O)cc1)C(=O)N[C@H]1CCC(=O)N2CCC[C@@H](C(=O)NCc3ccc(Cl)cc3)N2C1=O`, the GI50 in experiment [1], in [2], in [3], in [4], in [5] and in experiment [6] was > 25 µM throughout. The GI50 in experiment [7], in experiment [8] and in [9] was > 25 µM each time. Further, the concentration for total growth inhibition (TGI) in experiment [1], in experiment [2], in experiment [3], in experiment [4], in experiment [5] and in experiment [6] was > 25 µM each time. For the same molecule, the total growth inhibition concentration (TGI) in experiment [7], in experiment [8] and in [9] was > 25 µM each time.

As for `N#Cc1c(-c2ccccc2)nc(SCC2CO2)nc1N1CCOCC1` (centres undefined), the GI50 in experiment [1] is 11.3 µM; in experiment [2] it was 34.3 µM; in experiment [3], 13.4 µM; in experiment [4], 9.41 µM; in experiment [5], 6.59 µM; in [6] it was 3.06 µM. Also, the GI50 in [7] is 12.3 µM; in [8], 5.11 µM; in experiment [9], 10.2 µM. Also, the concentration for total growth inhibition (TGI) in experiment [1] was > 95.5 µM; in experiment [2], > 100 µM; in [3] it was > 100 µM; in [4], 72.9 µM; in experiment [5], > 100 µM; in experiment [6], > 100 µM. Also, the TGI in experiment [7] was > 53.3 µM; in [8], 76.5 µM; in experiment [9] it was > 100 µM.

For `CN(C)CCOc1ccc(-c2nc(-c3ccc4c(c3)CC/C4=N\O)c(-c3ccncc3)[nH]2)cc1`, the GI50 in [1] is 14.1 µM and 62.7 µM; in experiment [2], 0.0456 µM and 0.0489 µM; in experiment [3], 0.0258 µM and 0.054 µM; in experiment [4], 5.75 µM and 16.8 µM; in experiment [5] it was 4.14 µM and 4.55 µM; in [6], 4.52 µM and 3.55 µM. For the same molecule, the GI50 in experiment [7] is 5.48 µM and 3.64 µM; in experiment [8] it was 0.0188 µM and 0.029 µM; in [9], 3.31 µM and 5.46 µM. Also, the TGI in experiment [1] was 25 µM and > 100 µM; in [2], 1.07 µM and 2.74 µM; in [3] it was 2.14 µM and 3.69 µM; in experiment [4], 13.7 µM and 77 µM; in experiment [5], 8.24 µM and 17.2 µM; in experiment [6], 9.03 µM and 16.1 µM. In addition, the TGI is 16.6 µM and 14.5 µM in experiment [7]; 3.26 µM and 1.85 µM in [8]; 6.81 µM and 19.9 µM in experiment [9].

On to `COc1ccc2[nH]c(=O)c3c4ccccc4cn3c2c1`, for which the concentration for 50% growth inhibition (GI50) in experiment [1] was 0.308 µM; in [2], 2.67 µM; in experiment [3], 0.494 µM; in experiment [4] it was 0.358 µM; in [5], 0.19 µM; in experiment [6] it was 0.153 µM. Besides, the GI50 was 0.125 µM in experiment [7], 0.663 µM in experiment [8] and 0.377 µM in [9]. Besides, the TGI is 1.29 µM in experiment [1]; 11.1 µM in [2]; 1.92 µM in experiment [3]; 2.03 µM in [4]; 1.31 µM in experiment [5]; 0.969 µM in experiment [6]. For the same molecule, the total growth inhibition concentration (TGI) turned out to be 0.842 µM in experiment [7], 2.01 µM in [8] and 1.44 µM in experiment [9].

With `Cc1cc2nc(C(C)C(=O)c3ccc(Cl)cc3)c(=O)[nH]c2cc1C` (centres undefined), the concentration for total growth inhibition (TGI) in experiment [1], in [2], in experiment [3], in experiment [4], in [5] and in experiment [6] was > 100 µM in each case. Besides, the total growth inhibition concentration (TGI) in [7] was 97.6 µM; in experiment [8] it was > 100 µM; in experiment [9], > 100 µM.
